Four compounds from patent publication US6472383B1, “Pharmaceutical formulations” (priority 1994, dated 2002) can be followed below.

Structures are written as SMILES. Several values for one entry are separate records, joined by “and”; a condition that tells them apart may be missing. Identical values can stand only once. Counter-ions that a name gives are not always drawn.

One data set has as its system E. cloacae. The experiment in a line: in vitro selection of ceftazidime-resistant cells in a growing population. The data set is classed as cell-based.
Data set [1] deals with strain of Enterobacter producing extended spectrum β-lactamase enzymes. The experiment in a line: in-vitro MIC of ceftazidime alone and with Example 1. The following applies: Enterobacter ESBL strain. The data set is classed as cell-based. The text has this:
(§1) The in-vitro synergistic activity of the compound of Example 1 above (i.e sodium (5R)-6-[(Z)-(2,3-dihydroimidazo[2,1-b]thiazol-6-yl) methylene]penem-3-carboxylate) with ceftazidime was investigated.

In data set [2] the test system is B. fragilis. Described as above. The data set is classed as cell-based.
Text: as §1

Data set [3] deals with strain of Ent.cloacae producing high levels of Class 1 β-lactamases constitutively. The experiment in a line: MIC of cefotaxime, titration with Example 1. The data set is classed as cell-based. The following applies: in presence of 1 μg/ml Example 1; Ent.cloacae high Class 1.
In data set [4] the test system is B. fragilis. The experiment in a line: in-vitro synergy with cefotaxime. The data set is classed as cell-based. The following applies: 1 μg/ml Example 1. The text has this:
(§2) The in-vitro synergistic activity of the compound of Example 1 above (i.e sodium (5R)-6-[(Z)-(2,3-dihydroimidazo[2,1-b]thiazol- 6-yl)methylene]penem-3-carboxylate) with cefotaxime was investigated.

In data set [5] the test system is strains of Enterobacteriaceae producing extended spectrum β-lactamases. The experiment in a line: in-vitro synergy with cefotaxime. The data set is classed as cell-based. The following applies: 1 μg/ml Example 1.
Text: as §2

A further data set can be described thus: serum half life. The following applies: in vivo.
In data set [6] the test system is Klebsiella pneumoniae (520), producing TEM-3 β-lactamase. The experiment in a line: mouse intraperitoneal infection, cefotaxime CD50. The data set is classed as in vivo, mice. Here is the method:
(§3) In these studies, mice were infected intraperitoneally with a lethal challenge inoculum of strains of either Klebsiella pneumoniae (520), producing extended-spectrum TEM type ββ-lactamase, (TEM-3) or Enterobacter cloacae (4593) producing high levels of derepressed class (AmpC) ββ-lactamase. Virulence of all strains was enhanced by suspending the bacteria in hog gastric mucin prior to infection.
(§4) Mice were dosed subcutaneously at 1 and 5 hours post-infection, with either cefotaxime alone or coadministered with the ββ-lactamase inhibitor at 1 mg/kg or 5 mg/kg.
(§5) 1 CD50 (dose protecting 50% of animals from lethal infection) calculated from groups of 5 animals per test, subjected to a range of 4 dose levels (4-fold serial dilutions)
(§6) Efficacy was assessed by the number of animal surviving at 4 days after infection, and the total dose that protected 50% of treated animals (CD50 value) was calculated.

The test system of data set [7] is Enterobacter cloacae (4593) producing high levels of derepressed class (AmpC) β-lactamase. The experiment in a line: mouse intraperitoneal infection, cefotaxime CD50. The data set is classed as in vivo, mice. Here is the method: as §3, §4, §5, §6
Data set [8] has as its system TEM-3 producing strain of K.pneumoniae. The experiment in a line: MIC of cefotaxime, titration with Example 1. The data set is classed as cell-based. The following applies: K.pneumoniae TEM-3. The procedure: as §2
The MIC (inimum inhibitory concentration) of cefotaxime against one TEM-3 producing strain of K.pneumoniae was measured.

Data set [9] has as its system Escherichia coli (E96), producing TEM-1 β-lactamase. The experiment in a line: mouse intraperitoneal infection, amoxycillin CD50. The data set is classed as in vivo, mice. The following applies: coadministration with Example 1 versus amoxycillin alone. Here is the method: In these studies, mice were infected intrapenitoneally with a lethal challenge inoculum of strains of Escherichia coli (E96), producing TEM-1 ββ-lactamase, for tests to protect amoxycillin. Virulence of all strains was enhanced by suspending the bacteria in hog gastric mucin prior to infection.
Mice were dosed subcutaneously at 1 and 5 hours post-infection, with either amoxycillin alone or coadministered with the ββ-lactamase inhibitor at 2 mg/kg.
as §6

Another data set deals with Ent. cloacae N1. The experiment in a line: in-vitro MIC of amoxycillin alone and with Example 1. The following applies: alone; β-lactamase 1 (inducible expression). The data set is classed as cell-based.
The subject of another data set is E. coli JT39. Described as above. The data set is classed as cell-based. The following applies: alone; β-lactamase 2b (low expression).
For another data set, the system named is E. coli P91. Described as above. The data set is classed as cell-based. The following applies: alone; β-lactamase 2d.
In a further data set the test system is P. vulgaris C. The description is as above. The following applies: alone; β-lactamase 2e. The data set is classed as cell-based.
A further data set has as its system P. mirabilis C889. The data set is described as above. The following applies: alone; β-lactamase 2c. The data set is classed as cell-based.
For another data set, the system named is S. aureus Russell. Described as above. The data set is classed as cell-based. The following applies: alone; β-lactamase 2a.
Another data set concerns JT4. Described as above. The following applies: alone; β-lactamase 2b (high expression). The data set is classed as cell-based, P. coli.
The subject of the next data set is Ent. cloacae P99. Described as above. The data set is classed as cell-based. The following applies: alone; β-lactamase 1 (high constitutive expression).
Where [10] appears, read: in presence of 1 μg/ml Example 1.

Take `CC(C)(O/N=C(\C(=O)N[C@@H]1C(=O)N2C(C(=O)[O-])=C(C[n+]3ccccc3)CS[C@H]12)c1csc(N)n1)C(=O)O` [ceftazidime, [6R -[6α,7β(Z)]]-1-[[7-[[(2-amino-4-thiazolyl)[(1-carboxy-1-methylethoxy)imino]acetyl]amino]-2-carboxy-8-oxo-5-thia-1-azabicyclo[4.2.0]oct-2-en-3-yl]methyl]pyridinium hydroxide inner salt]: the “selection of cells showing high-level resistance to ceftazidime” value in the data set on E. cloacae (ceftazidime alone at 0.5 MIC) is on record as “rapidly selected”. Besides, the MIC in data set [1] (ceftazidime alone) was ~7 µg/mL; in the data set with B. fragilis [2] (Bacteroides fragilis, ceftazidime alone), ~7 µg/mL.

As to `O=C([O-])C1=CS[C@@H]2/C(=C\c3cn4c(n3)SCC4)C(=O)N12.[Na+]` [Example 1, Sodium (5R)-6-[(Z)-(2,3-Dihydroimidazo[2,1-b]thiazol-6-yl) Methylene]-penem-3-carboxylate], in the data set on E. cloacae (ceftazidime at 0.5 MIC plus Example 1), the “rate of emergence of resistant isolates” value is reported as “reduced the rate of emergence of resistant isolates dramatically”. In addition, the “final level of resistance” value in the data set with E. cloacae (combination of ceftazidime and Example 1 versus ceftazidime alone) was “much lower than that observed with ceftazidime alone”. Moreover, in data set [3], the “cefotaxime MIC” value is “below 1 μg/ml”. Moreover, the MIC of ceftazidime result in [1] (setting [10]) is listed as “around 2 μg/ml”; in the data set on B. fragilis [2] (setting [10]), “around 4 μg/ml”. Also, the synergy with cefotaxime result (in the data set with B. fragilis [4]; in [5]) was “Effective synergy” each time. Further, in “serum half life”, the serum half life result is reported as “advantageously long”. Moreover, the “protection of infected animals” value in data set [6] (cefotaxime plus Example 1 compared with cefotaxime alone, K.pneumoniae (520)) is listed as “consistent protection”; in data set [7] (cefotaxime plus Example 1 compared with cefotaxime alone, E. cloacae (4593)) it was “consistent protection”. Also, the MIC of cefotaxime result in data set [8] (Example 1 at concentrations as low as 0.25 μg/ml) is “below 1 μg/ml”. For the same compound, the “effectiveness of amoxycillin in protecting animals” value in data set [9] is “markedly more effective”.

As to `CC1(C)S[C@@H]2[C@H](NC(=O)[C@H](N)c3ccc(O)cc3)C(=O)N2[C@H]1C(=O)O` [Amoxycillin, 6-[D(−)-α-amino-p-hydroxypheny-acetamido]penicillanic acid], the Amoxycillin MIC in the data set with Ent. cloacae N1 is > 256 µg/mL; in the data set with E. coli JT39, > 256 µg/mL; in the data set on E. coli P91 it was > 256 µg/mL; in the data set with P. vulgaris C it was 32 µg/mL; in the data set on P. mirabilis C889, > 256 µg/mL; in the data set on S. aureus Russell it was 128 µg/mL. Further, the Amoxycillin MIC in the data set on JT4 and with Ent. cloacae P99 was > 256 µg/mL each time.

For `CO/N=C(\C(=O)N[C@@H]1C(=O)N2C(C(=O)O)=C(COC(C)=O)CS[C@H]12)c1csc(N)n1` [Cefotaxime], the “Cefotaxime CD50” value was 54 mg/kg and 42 mg/kg in data set [6] (cefotaxime alone, s.c. at 1 and 5 h post-infection, K. pneumoniae); 240 mg/kg and 400 mg/kg in data set [7] (cefotaxime alone, s.c. at 1 and 5 h post-infection, E. cloacae 4593). For the same compound, in [8] (Klebsiella pneumoniae, in the absence of Example 1), the MIC came to 64 µg/mL.

By MIC is commonly meant the lowest concentration found to suppress growth.
